The values below come from ChEMBL document CHEMBL1817639, “Refinement of arylthiosemicarbazone pharmacophore in inhibition of mushroom tyrosinase” (Eur J Med Chem, 2011).

One data set concerns the target T1, Tyrosinase (Agaricus bisporus, UniProt O42713).
T1 sequence (O42713 whole entry): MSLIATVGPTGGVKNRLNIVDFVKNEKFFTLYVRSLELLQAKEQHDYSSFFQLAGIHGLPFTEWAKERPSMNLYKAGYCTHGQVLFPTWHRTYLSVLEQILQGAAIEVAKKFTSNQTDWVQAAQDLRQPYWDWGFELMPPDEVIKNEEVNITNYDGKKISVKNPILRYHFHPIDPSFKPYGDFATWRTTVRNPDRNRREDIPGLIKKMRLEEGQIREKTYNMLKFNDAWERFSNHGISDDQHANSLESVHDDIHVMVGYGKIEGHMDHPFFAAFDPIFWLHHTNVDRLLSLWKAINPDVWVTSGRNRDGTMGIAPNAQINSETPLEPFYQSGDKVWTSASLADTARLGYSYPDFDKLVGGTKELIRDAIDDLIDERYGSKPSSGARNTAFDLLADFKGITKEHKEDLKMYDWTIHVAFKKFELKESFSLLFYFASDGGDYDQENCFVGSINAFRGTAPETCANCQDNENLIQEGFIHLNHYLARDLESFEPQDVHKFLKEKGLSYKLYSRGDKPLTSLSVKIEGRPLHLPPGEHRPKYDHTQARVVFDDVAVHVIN
Description: Inhibition of diphenolase activity of mushroom tyrosinase using L-DOPA as substrate preincubated for 5 mins by spectroscopic method
The molecule `Cn1cc(/C=N/NC(N)=S)c2ccccc21` gave an IC50 greater than 2000 µM.

Molecule `NC(=S)N/N=C/c1cccc(F)c1` yielded an IC50 of 9 µM.

For `NC(=S)N/N=C/Cc1ccccc1`, the midpoint of inhibition, the IC50, lay at 7 µM.

With `NC(=S)N/N=C/c1c[nH]c2ccccc12`, the IC50 was found to be 600 µM. This IC50 is about 86-fold higher than that of the molecule before.

Molecule `COc1coc(/C=N/NC(N)=S)cc1=O` had an IC50 greater than 2000 µM.

`N/C(S)=N/N=C/c1ccccn1` came in with an IC50 of 45 µM.

As for `NC(=S)N/N=C/c1ccccc1F`, the IC50 turned out to be 32 µM.

`NC(=S)N/N=C/c1cc2ccccc2[nH]1` came in with an IC50 of 402 µM.

In the case of `Cn1ccc2cc(/C=N/NC(N)=S)ccc21`, the IC50 was greater than 2000 µM.

Consider `NC(=S)N/N=C/c1cccc2ccccc12`, for which the IC50 stood at 12 µM. This counts as double-digit micromolar.

In turn, `NC(=S)N/N=C/c1ccc2ccccc2n1` gave an IC50 of 70 µM.

`NC(=S)N/N=C/c1ccc(F)cc1` displayed an IC50 of 11 µM. This IC50 is about 6.4-fold lower than that of the molecule before.

Turning to `NC(=S)N/N=C/c1cc(=O)c(O)co1`, 11 µM corresponded to half-maximal inhibition (IC50).

As for `NC(=S)N/N=C/c1ccc[nH]1`, the IC50 was 8 µM. This IC50 and that of the molecule before are within 1.5-fold of each other.

For `NC(=S)N/N=C/c1ccc2ccccc2c1`, the IC50 was 1100 µM.

The molecule `NC(=S)N/N=C/c1ccco1` yielded an IC50 of 6 µM.

Molecule `Cn1c(/C=N/N=C(/N)S)cc2ccccc21` showed an IC50 of 1700 µM.

The molecule `Cc1[nH]c2ccccc2c1/C=N/NC(N)=S` gave a concentration for half-maximal inhibition (IC50) greater than 2000 µM.

Molecule `NC(=S)N/N=C/c1ccc2[nH]ccc2c1` came in with an IC50 greater than 2000 µM.

`NC(=S)N/N=C/CCc1ccccc1`: the IC50 was determined as 400 µM.

The target of the next data set is T2, Tyrosinase (Agaricus bisporus) (UniProt O42713).
T2 sequence (whole entry): T1 sequence (O42713 whole entry)
Nature of the data set: Ratio IC50 for Kojic acid to compound for diphenolase activity of mushroom tyrosinase.
As to `NC(=S)N/N=C/c1cc(=O)c(O)co1`, the Ratio IC50 stood at 9.

System in a further data set: not listed separately
Nature of the data set: Dissociation constant, pKa of the compound. The format is physicochemical.
Take `N/C(S)=N/N=C/c1ccccn1`: the pKa is 5.

For `NC(=S)N/N=C/c1ccc[nH]1`, the pKa stood at 0.5.

As to `NC(=S)N/N=C/c1ccco1`, the pKa was found to be 0.5.
